Experimental data: patent US20240024488A1, “COMPOUNDS AND USES THEREOF” (Foghorn Therapeutics Inc., priority 2020, published 2024)

Tests used:
[1] = molecular target: T1, HiBit-BRG1 fusion protein (Homo sapiens, UniProt P51532); assay: HiBiT-BRG1 cell-based degradation assay (Nano-Glo HiBiT Lytic Detection, 24 h); conditions: HeLa cell line expressing HiBit-BRG1 and LgBit; for Dmax: read-out: BRG1 HiBit Degradation Maximum (%); for DC50: read-out: BRMG1 HiBit Degradation IC50
T1 construct: expressed in transfected cells
T1 sequence (P51532 whole entry, the tested form may be a part): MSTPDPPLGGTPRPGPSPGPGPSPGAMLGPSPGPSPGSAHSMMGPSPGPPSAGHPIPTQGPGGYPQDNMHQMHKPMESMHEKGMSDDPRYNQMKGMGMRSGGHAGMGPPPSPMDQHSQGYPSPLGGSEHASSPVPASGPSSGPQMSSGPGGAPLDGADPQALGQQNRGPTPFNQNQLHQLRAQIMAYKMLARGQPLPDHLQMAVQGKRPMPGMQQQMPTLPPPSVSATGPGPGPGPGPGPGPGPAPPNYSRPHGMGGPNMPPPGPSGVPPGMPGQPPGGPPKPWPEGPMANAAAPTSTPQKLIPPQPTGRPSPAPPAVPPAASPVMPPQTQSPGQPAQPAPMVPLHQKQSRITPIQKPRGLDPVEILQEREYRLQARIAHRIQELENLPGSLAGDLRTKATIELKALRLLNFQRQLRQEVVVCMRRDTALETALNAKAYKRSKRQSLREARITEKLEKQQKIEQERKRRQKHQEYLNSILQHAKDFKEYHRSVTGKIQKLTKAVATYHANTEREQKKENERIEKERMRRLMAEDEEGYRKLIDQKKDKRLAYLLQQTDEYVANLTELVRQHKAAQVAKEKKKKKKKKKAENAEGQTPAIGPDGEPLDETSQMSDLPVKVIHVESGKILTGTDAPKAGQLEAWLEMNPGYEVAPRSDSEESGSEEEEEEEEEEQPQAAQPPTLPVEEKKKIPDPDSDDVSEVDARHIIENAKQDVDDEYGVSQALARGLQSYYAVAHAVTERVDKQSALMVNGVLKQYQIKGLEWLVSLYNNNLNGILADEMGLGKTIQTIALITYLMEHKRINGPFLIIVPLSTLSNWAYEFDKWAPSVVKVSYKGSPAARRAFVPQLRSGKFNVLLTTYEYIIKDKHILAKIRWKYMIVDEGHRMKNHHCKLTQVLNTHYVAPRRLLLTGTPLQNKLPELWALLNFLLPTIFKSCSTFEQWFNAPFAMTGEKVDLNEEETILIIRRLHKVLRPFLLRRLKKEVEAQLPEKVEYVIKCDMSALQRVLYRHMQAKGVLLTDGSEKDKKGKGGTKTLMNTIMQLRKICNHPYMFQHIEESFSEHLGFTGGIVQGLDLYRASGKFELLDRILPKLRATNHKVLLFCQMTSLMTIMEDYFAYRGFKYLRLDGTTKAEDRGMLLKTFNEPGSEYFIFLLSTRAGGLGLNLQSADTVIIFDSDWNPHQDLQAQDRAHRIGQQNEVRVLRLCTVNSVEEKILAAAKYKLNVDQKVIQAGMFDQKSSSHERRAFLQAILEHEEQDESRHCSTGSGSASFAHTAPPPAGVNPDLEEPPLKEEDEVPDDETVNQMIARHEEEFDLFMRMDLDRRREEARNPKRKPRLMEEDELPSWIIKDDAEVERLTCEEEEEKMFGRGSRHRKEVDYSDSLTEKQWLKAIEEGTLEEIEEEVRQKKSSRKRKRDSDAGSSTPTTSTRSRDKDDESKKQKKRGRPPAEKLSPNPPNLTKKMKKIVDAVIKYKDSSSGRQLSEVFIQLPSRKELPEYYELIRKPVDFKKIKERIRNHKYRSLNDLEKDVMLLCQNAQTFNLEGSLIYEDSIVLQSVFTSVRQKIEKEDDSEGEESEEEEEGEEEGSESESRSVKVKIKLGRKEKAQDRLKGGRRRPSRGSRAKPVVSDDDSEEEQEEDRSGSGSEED
In short: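 Stable HeLa line co-expressing HiBit-BRG1 and LgBit, 5000 cells/well, treated 24 h in a tissue culture incubator. Lysed with Nano-Glo HiBiT lytic reagent, luminescence read. % degradation normalized to DMSO (high control) and 2 μM reference BRM/BRG1 degrader (low control).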

HiBit-BRM fusion protein = molecular target: T2, HiBit-BRM fusion protein (Homo sapiens, UniProt P51531); assay: HiBiT-BRM cell-based degradation assay (Nano-Glo HiBiT Lytic Detection, 24 h); conditions: HeLa cell line expressing HiBiT-BRM; for DC50: read-out: BRM HiBit Degradation IC50
T2 construct: expressed in transfected cells
T2 sequence (P51531 whole entry, the tested form may be a part): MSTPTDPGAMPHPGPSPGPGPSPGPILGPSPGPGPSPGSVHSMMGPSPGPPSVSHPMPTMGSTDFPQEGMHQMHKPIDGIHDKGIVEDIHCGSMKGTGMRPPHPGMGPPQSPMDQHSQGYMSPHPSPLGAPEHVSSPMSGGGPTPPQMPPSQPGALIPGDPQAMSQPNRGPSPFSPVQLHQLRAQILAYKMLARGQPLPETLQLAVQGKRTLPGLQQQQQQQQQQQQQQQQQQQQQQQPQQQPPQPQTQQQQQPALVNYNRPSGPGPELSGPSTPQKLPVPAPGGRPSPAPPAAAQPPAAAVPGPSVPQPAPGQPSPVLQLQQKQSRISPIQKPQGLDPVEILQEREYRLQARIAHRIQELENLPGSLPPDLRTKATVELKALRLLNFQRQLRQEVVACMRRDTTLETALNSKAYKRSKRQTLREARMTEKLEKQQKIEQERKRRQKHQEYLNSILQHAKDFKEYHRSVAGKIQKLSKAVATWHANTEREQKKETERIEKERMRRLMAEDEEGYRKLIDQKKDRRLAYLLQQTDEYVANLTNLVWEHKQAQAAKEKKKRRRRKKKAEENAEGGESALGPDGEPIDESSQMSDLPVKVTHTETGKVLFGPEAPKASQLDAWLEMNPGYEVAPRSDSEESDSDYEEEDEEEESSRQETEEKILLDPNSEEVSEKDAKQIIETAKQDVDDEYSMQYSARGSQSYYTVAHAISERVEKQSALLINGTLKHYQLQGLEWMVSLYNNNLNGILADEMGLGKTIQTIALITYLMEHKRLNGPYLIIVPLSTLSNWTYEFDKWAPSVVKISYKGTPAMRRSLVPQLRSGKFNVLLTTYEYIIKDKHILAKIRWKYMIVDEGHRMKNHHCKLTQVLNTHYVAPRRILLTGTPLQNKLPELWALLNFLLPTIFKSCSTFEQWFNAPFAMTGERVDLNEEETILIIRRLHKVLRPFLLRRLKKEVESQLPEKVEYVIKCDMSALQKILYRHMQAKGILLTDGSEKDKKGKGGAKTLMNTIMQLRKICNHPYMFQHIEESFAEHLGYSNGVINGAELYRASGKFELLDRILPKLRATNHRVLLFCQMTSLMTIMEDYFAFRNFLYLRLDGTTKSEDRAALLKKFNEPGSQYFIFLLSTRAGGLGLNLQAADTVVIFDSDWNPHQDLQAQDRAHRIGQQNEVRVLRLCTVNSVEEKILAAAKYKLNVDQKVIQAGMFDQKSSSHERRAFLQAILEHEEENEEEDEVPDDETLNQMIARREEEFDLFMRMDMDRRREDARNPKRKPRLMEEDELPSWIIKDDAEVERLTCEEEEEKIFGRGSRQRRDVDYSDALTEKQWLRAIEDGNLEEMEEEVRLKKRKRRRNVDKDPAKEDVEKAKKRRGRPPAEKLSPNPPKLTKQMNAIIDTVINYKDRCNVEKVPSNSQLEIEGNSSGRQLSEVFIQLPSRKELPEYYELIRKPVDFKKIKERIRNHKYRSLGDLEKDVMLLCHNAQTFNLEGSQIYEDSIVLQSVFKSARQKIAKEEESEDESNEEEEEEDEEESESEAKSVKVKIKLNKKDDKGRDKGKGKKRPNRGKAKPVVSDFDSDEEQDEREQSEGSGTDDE
In short: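 Percent BRM loss was derived from HiBiT luminescence relative to DMSO-treated cells and cells given 2 μM of a known BRM/BRG1 degrader. Treatment lasted 24 h in HiBiT-BRM HeLa cells, with a top final concentration of 30 μM.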

| Dmax [1] [%] | DC50 [1] [nM] | DC50 (HiBit-BRM fusion protein) [nM] | Compound | BRM HiBit Degradation Maximum (%) (HiBit-BRM fusion protein) |
| --- | --- | --- | --- | --- |
| > 75 | > 100 | > 10 | Cc1ncsc1-c1ccc([C@H](C)NC(=O)[C@@H]2C[C@@H](O)CN2C(=O)C(c2cc(N3CCC(C(=O)N4CC(c5cc6cc(-c7ccccc7O)nnc6[nH]5)C4)CC3)no2)C(C)C)cc1 (mixture of isomers) [Compound 274, (2S,4R)-4-hydroxy-1-((S)-2-(3-(4-(3-(3-(2-hydroxyphenyl)-7H-pyrrolo[2,3-c]pyridazin-6-yl)azetidine-1-carbonyl)piperidin-1-yl)isoxazol-5-yl)-3-methylbutanoyl)-N-((S)-1-(4-(4-methylthiazol-5-yl)phenyl)ethyl)pyrrolidine-2-carboxamide] | A (“A” indicates maximum degradation ≥ 75%) |
| < 50 |  | > 10 | Cc1ncsc1-c1ccc([C@H](C)NC(=O)[C@@H]2C[C@@H](O)CN2C(=O)[C@@H](c2cc(OCCN3CC(C)(c4cc5cc(-c6ccccc6O)nnc5[nH]4)C3)no2)C(C)C)cc1 (racemic) [Compound 275, (2S,4R)-4-hydroxy-1-((R)-2-(3-(2-(3-(3-(2-hydroxyphenyl)-7H-pyrrolo[2,3-c]pyridazin-6-yl)-3-methylazetidin-1-yl)ethoxy)isoxazol-5-yl)-3-methylbutanoyl)-N-((S)-1-(4-(4-methylthiazol-5-yl)phenyl)ethyl)pyrrolidine-2-carboxamide] | A (“A” indicates maximum degradation ≥ 75%) |
| > 50 | > 10 | > 10 | Cc1ncsc1-c1ccc([C@H](C)NC(=O)[C@@H]2C[C@@H](O)CN2C(=O)[C@@H](c2cc(OCCN3CCC[C@H](c4cc5cc(-c6ccccc6O)nnc5[nH]4)C3)no2)C(C)C)cc1 (racemic) [Compound 278, (2S,4R)-4-hydroxy-1-((R)-2-(3-(2-((S)-3-(3-(2-hydroxyphenyl)-7H-pyrrolo[2,3-c]pyridazin-6-yl)piperidin-1-yl)ethoxy)isoxazol-5-yl)-3-methylbutanoyl)-N-((S)-1-(4-(4-methylthiazol-5-yl)phenyl)ethyl)pyrrolidine-2-carboxamide] | A (“A” indicates maximum degradation ≥ 75%) |
| < 50 |  | > 10 | Cc1ncsc1-c1ccc([C@H](C)NC(=O)[C@@H]2C[C@@H](O)CN2C(=O)[C@@H](c2cc(OCCN3CCC[C@@H](c4cc5cc(-c6ccccc6O)nnc5[nH]4)C3)no2)C(C)C)cc1 (racemic) [Compound 279, (2S,4R)-4-hydroxy-1-((R)-2-(3-(2-((R)-3-(3-(2-hydroxyphenyl)-7H-pyrrolo[2,3-c]pyridazin-6-yl)piperidin-1-yl)ethoxy)isoxazol-5-yl)-3-methylbutanoyl)-N-((S)-1-(4-(4-methylthiazol-5-yl)phenyl)ethyl)pyrrolidine-2-carboxamide] | A (“A” indicates maximum degradation ≥ 75%) |
| < 50 |  | > 10 | Cc1ncsc1-c1ccc([C@H](C)NC(=O)[C@@H]2C[C@@H](O)CN2C(=O)[C@@H](c2cc(OCCN3CC[C@H](c4cc5cc(-c6ccccc6O)nnc5[nH]4)C3)no2)C(C)C)cc1 (racemic) [Compound 280, (2S,4R)-4-hydroxy-1-((R)-2-(3-(2-((S)-3-(3-(2-hydroxyphenyl)-7H-pyrrolo[2,3-c]pyridazin-6-yl)pyrrolidin-1-yl)ethoxy)isoxazol-5-yl)-3-methylbutanoyl)-N-((S)-1-(4-(4-methylthiazol-5-yl)phenyl)ethyl)pyrrolidine-2-carboxamide] | A (“A” indicates maximum degradation ≥ 75%) |
| < 50 |  | > 10 | Cc1ncsc1-c1ccc([C@H](C)NC(=O)[C@@H]2C[C@@H](O)CN2C(=O)[C@@H](c2cc(OCCN3CCC(c4c[nH]c5nnc(-c6ccccc6O)cc45)CC3)no2)C(C)C)cc1 (racemic) [Compound 282, (2S,4R)-4-hydroxy-1-((R)-2-(3-(2-(4-(3-(2-hydroxyphenyl)-7H-pyrrolo[2,3-c]pyridazin-5-yl)piperidin-1-yl)ethoxy)isoxazol-5-yl)-3-methylbutanoyl)-N-((S)-1-(4-(4-methylthiazol-5-yl)phenyl)ethyl)pyrrolidine-2-carboxamide] | A (“A” indicates maximum degradation ≥ 75%) |
| < 50 |  | > 10 | Cc1ncsc1-c1ccc([C@H](C)NC(=O)[C@@H]2C[C@@H](O)CN2C(=O)[C@@H](c2cc(OCCN3CCC[C@@H](c4c[nH]c5nnc(-c6ccccc6O)cc45)C3)no2)C(C)C)cc1 (racemic) [Compound 283, (2S,4R)-4-hydroxy-1-((R)-2-(3-(2-((S)-3-(3-(2-hydroxyphenyl)-7H-pyrrolo[2,3-c]pyridazin-5-yl)piperidin-1-yl)ethoxy)isoxazol-5-yl)-3-methylbutanoyl)-N-((S)-1-(4-(4-methylthiazol-5-yl)phenyl)ethyl)pyrrolidine-2-carboxamide] | B (“B” indicates maximum degradation ≥ 50%) |
| > 75 | > 100 | > 10 | Cc1ncsc1-c1ccc([C@H](C)NC(=O)[C@@H]2C[C@@H](O)CN2C(=O)[C@@H](c2cc(OCCN(C)Cc3ccc(Cc4cc5cc(-c6ccccc6O)nnc5[nH]4)cc3)no2)C(C)C)cc1 (racemic) [Compound 284] | A (“A” indicates maximum degradation ≥ 75%) |
| > 50 | > 100 | > 100 | Cc1ncsc1-c1ccc([C@H](C)NC(=O)[C@@H]2C[C@@H](O)CN2C(=O)[C@@H](c2cc(OCCN3CCC(F)(c4cc5cc(-c6ccccc6O)nnc5[nH]4)CC3)no2)C(C)C)cc1 (racemic) [Compound 285, (2S,4R)-1-((R)-2-(3-(2-(4-fluoro-4-(3-(2-hydroxyphenyl)-7H-pyrrolo[2,3-c]pyridazin-6-yl)piperidin-1-yl)ethoxy)isoxazol-5-yl)-3-methylbutanoyl)-4-hydroxy-N-((S)-1-(4-(4-methylthiazol-5-yl)phenyl)ethyl)pyrrolidine-2-carboxamide] | A (“A” indicates maximum degradation ≥ 75%) |
| < 50 |  | > 10 | Cc1ncsc1-c1ccc([C@H](C)NC(=O)[C@@H]2C[C@@H](O)CN2C(=O)[C@@H](c2cc(OCCN3CCCC(c4cc5cc(-c6ccccc6O)nnc5[nH]4)C3)no2)C(C)C)cc1 (mixture of isomers) [Compound 286, (2S,4R)-4-hydroxy-1-((2R)-2-(3-(2-(3-(3-(2-hydroxyphenyl)-7H-pyrrolo[2,3-c]pyridazin-6-yl)piperidin-1-yl)ethoxy)isoxazol-5-yl)-3-methylbutanoyl)-N-((S)-1-(4-(4-methylthiazol-5-yl)phenyl)ethyl)pyrrolidine-2-carboxamide] | A (“A” indicates maximum degradation ≥ 75%) |
| < 50 |  | > 100 | Cc1ncsc1-c1ccc([C@H](C)NC(=O)[C@@H]2C[C@@H](O)CN2C(=O)[C@@H](c2cc(OCCN3CC(c4cc5cc(-c6cc(F)cc(Cl)c6O)nnc5[nH]4)C3)no2)C(C)C)cc1 (racemic) [Compound 287, (2S,4R)-1-((R)-2-(3-(2-(3-(3-(3-chloro-5-fluoro-2-hydroxyphenyl)-7H-pyrrolo[2,3-c]pyridazin-6-yl)azetidin-1-yl)ethoxy)isoxazol-5-yl)-3-methylbutanoyl)-4-hydroxy-N-((S)-1-(4-(4-methylthiazol-5-yl)phenyl)ethyl)pyrrolidine-2-carboxamide] | B (“B” indicates maximum degradation ≥ 50%) |
| < 50 |  | > 100 | Cc1ncsc1-c1ccc([C@H](C)NC(=O)[C@@H]2C[C@@H](O)CN2C(=O)[C@@H](c2cc(OCCN3CC(c4cc5cc(-c6cc(F)ccc6O)nnc5[nH]4)C3)no2)C(C)C)cc1 (racemic) [Compound 288, (2S,4R)-1-((R)-2-(3-(2-(3-(3-(5-fluoro-2-hydroxyphenyl)-7H-pyrrolo[2,3-c]pyridazin-6-yl)azetidin-1-yl)ethoxy)isoxazol-5-yl)-3-methylbutanoyl)-4-hydroxy-N-((S)-1-(4-(4-methylthiazol-5-yl)phenyl)ethyl)pyrrolidine-2-carboxamide] | A (“A” indicates maximum degradation ≥ 75%) |

| Compound | Dmax [1] [%] | DC50 [1] [nM] | DC50 (HiBit-BRM fusion protein) [nM] | BRM HiBit Degradation Maximum (%) (HiBit-BRM fusion protein) |
| --- | --- | --- | --- | --- |
| Cc1ncsc1-c1ccc([C@H](C)NC(=O)[C@@H]2C[C@@H](O)CN2C(=O)[C@@H](c2cc(OCCN3CCC(C)(c4cc5cc(-c6ccccc6O)nnc5[nH]4)CC3)no2)C(C)C)cc1 (racemic) [Compound 276, (2S,4R)-4-hydroxy-1-((R)-2-(3-(2-(4-(3-(2-hydroxyphenyl)-7H-pyrrolo[2,3-c]pyridazin-6-yl)-4-methylpiperidin-1-yl)ethoxy)isoxazol-5-yl)-3-methylbutanoyl)-N-((S)-1-(4-(4-methylthiazol-5-yl)phenyl)ethyl)pyrrolidine-2-carboxamide] | > 50 | > 1000 | > 10 | A (“A” indicates maximum degradation ≥ 75%) |
| Cc1ncsc1-c1ccc([C@H](C)NC(=O)[C@@H]2C[C@@H](O)CN2C(=O)[C@@H](c2cc(OCCN3CCC(O)(c4cc5cc(-c6ccccc6O)nnc5[nH]4)CC3)no2)C(C)C)cc1 (racemic) [Compound 277, (2S,4R)-4-hydroxy-1-((R)-2-(3-(2-(4-hydroxy-4-(3-(2-hydroxyphenyl)-7H-pyrrolo[2,3-c]pyridazin-6-yl)piperidin-1-yl)ethoxy)isoxazol-5-yl)-3-methylbutanoyl)-N-((S)-1-(4-(4-methylthiazol-5-yl)phenyl)ethyl)pyrrolidine-2-carboxamide] | < 50 |  | > 100 | A (“A” indicates maximum degradation ≥ 75%) |
